Converted amounts (≈) assume the structure as drawn. Each block holds one compound with its values, some of them ahead of it.
Experiments:
[1] = tested on: tyrosinase; assay: Tyrosinase activity inhibition (method of Vanni et al); assay type: biochemical; conditions: concentration 200 mg/ml; 37° C., 10 minutes
Excerpt: In order to measure the skin whitening effect of the plant extract prepared using the high-pressure enzymatic decomposition technique, a tyrosinase activity inhibitory effect was compared between the green tea extract of Example 1 prepared using the high-pressure enzymatic decomposition technique of the present invention, the green tea extract of Comparative Example 3 prepared using the solvent extraction technique, and vitamin C, a typical whitening functional component.
The tyrosinase activity inhibitory effect was measured using the method of Vanni at al (A. Vanni, Annali Di Chimica, 80, p35, 1990). Specifically, 1.0 ml of 0.1M potassium phosphate buffer (pH 6.8), 1.0 ml of 0.3 mg/ml tyrosine aqueous solution and 0.1 ml of 1,250 units/ml tyrosinase (SIGMAT-7755) were mixed with each other, and 0.2 ml of each sample solution was added thereto at a concentration of 200 mg/ml. Then, the mixture was subjected to an enzymatic reaction at 37° C., for 10 minutes. The absorbance of the reaction solution was measured at 480 nm, and based on the results of the measurement, the tyrosinase activity inhibitory rate (%) of each sample was calculated according to the following equation 2. […]
wherein A: absorbance at 480 nm of a reaction solution to which the sample was not added; and B: absorbance at 480 nm of a reaction solution to which the sample was added.

[2] = tested on: transglutaminase-1; assay: Promotion of transglutaminase-1 synthesis in human skin cells; assay type: cell-based; conditions: concentration 1.5 mM, 2 days
Procedure: Because the synthesis of transglutaminase-1 is essential for the formation and maintenance of the horny layer, the effect of promoting the synthesis of transglutaminase-1 can be considered to enhance the skin barrier and increase the skin moisturizing effect. Specifically, human skin cells were added to each well of a 96-well plate at a density of 5×10^4 cells/well and allowed to adhere to each well for 24 hours. The adhered cells were treated with each of the test materials, and after 2 days, the medium was removed, and the cells were stored in a refrigerator at −20° C. The treated cells were disrupted by subjecting the cells twice to freeze-thawing, and then treated with a mixture of acetone:ethanol (1:1, v/v) stored at −20° C. Then, the cells were allowed to stand at 4° C. for 30 minutes so as to be immobilized. Then, the cells were allowed to stand at room temperature to evaporate the organic solvent. […] The expression level of transglutaminase in the cells was determined by measuring the absorbance at 490 nm, and the correction of the measurement was carried out by measuring the background at 630 nm. The absorbance values of the treated cells were compared with the absorbance value of an untreated control group, thereby calculating the rate of promotion of transglutaminase-1 synthesis, and the results of the calculation are shown in Table 6 below.

[3] = DPPH radical elimination (antioxidant activity); assay type: biochemical; conditions: 100 μM DPPH in ethanol, 37° C., 30 minutes, absorbance 540 nm
Excerpt: In order to measure the antioxidant effect of the plant extract prepared using the high-pressure enzymatic decomposition technique, a DPPH radical elimination effect was compared between the green tea extract prepared using the high-pressure enzymatic decomposition technique of the present invention (Example 1), the green tea extract prepared using the solvent extraction technique (Comparative Example 3), and Baicalin, a known antioxidant substance.
To measure the antioxidant effects of these extracts, a method of evaluating antioxidant activity based on the change in absorbance caused by the reduction of the organic radical DPPH (1,1-diphenyl-2-picrylhydrazyl) was used. The decrease in absorbance caused by the inhibition of oxidation of DPPH compared to the control was measured, and the concentration (IC50) at which the absorbance was 50% of the control was defined as the effective antioxidant concentration. A lower IC50 value indicates a higher DPPH removal effect, indicating higher antioxidant activity.
Specifically, 10 μl of each of the extracts of Example 1 and Comparative Example 3 and Baicalin was added to 100 μM of a solution of DPPH in ethanol to prepare a reaction solution. The reaction solution was allowed to react at 37° C. for 30 minutes, and then measured for absorbance at 540 nm.

- Tyrosinase activity inhibitory rate (%) [1]: 20%
Structure (SMILES): O=C1O[C@H]([C@@H](O)CO)C(O)=C1O [Vitamin C, vitamin C]

Structure (SMILES): [Ca+2].[Cl-].[Cl-] [Calcium chloride, calcium chloride]
- Promotion rate of transglutaminase-1 synthesis (%) [2]: 169.9 ± 6.4%

- IC50 (DPPH radical elimination) [3]: 3100 µg/mL (≈ 6.95 mM)
Structure (SMILES): O=C(O)[C@H]1O[C@@H](Oc2cc3oc(-c4ccccc4)cc(=O)c3c(O)c2O)[C@H](O)[C@@H](O)[C@@H]1O [Baicalin]
